Measurements taken from patent US6313170A, “L-threonate ferrous, as well as pharmaceutical composition and use for improving and treating human anemia thereof” (priority 1997, dated 2001).
Read-outs that look alike come from different tables or passages of the source.

Assays:
[1] = tested on: Hemolytic Anemia Model; assay: Hemolytic anemia model (acetylphenylhydrazine), rats; format: in vivo, male Wistar rats
Protocol: (§1) 1. […] All drugs were diluted by distilled water.
2. […] Animal diet also was purchased from Beijing Medical University.
(1) Hemolytic Anemia Model: Hemolytic anemia model was prepared for rats by injecting reagent of acetylphenylhydrazine (C8 H10 N2 O, produced by Beijing Biochemical Company) subcutaneously. The drug acetyphenylhydrazine was mixed with physiological saline to get its injection solution of 4% by weight of acetyphenylhydrazine. The solution was injected subcutaneously into each rat with a dosage of 57 μg/g at the beginning of the experiments. The content of blood hemochrome for each rat was examined at 2 days and 4 days later, respectively. When the mean blood hemochrome decreased to about 6.11±0.25 g %, rats were randomly divided into 6 groups of 18 rats each. […] The forth groups was positive drug control groups. The fifth group and the sixth group were designed as model group and normal control group, respectively.

[2] = tested on: Nutritional IDA Model
Protocol: as §1
(2) Nutritional Anemia Model: Male Wistar rats with body weight 43±2.5 g (Animal Center of Beijing Medical University) were randomly divided into 8 groups of 10 rats each, wherein 6 groups were established for the investigation of nutritional anemia and 2 groups were used as normal control group. The rats of these six groups were supplemented with iron-low diet (prepared according to the formula of AOAC, iron content 8.0 mg/kg) and deionized water four weeks to prepare the nutritional IDA model, which also was called hemoglobin exhausting test. Another two groups were designed as normal control groups and were provided with normal diet (obtained from Beijing Medical University) and water during the whole experimental period.
Hemoglobin of each group of rats was measured one time every 7 days. […] Other 6 groups (three for ferrous L-threonate, one for ferrous gluconate, one for mode control and one normal control group) rats were kept under controlled conditions (ambient temperature 23° C., 60% relative humidity, and 10 hours light) in animal feeding room to continue the further test.

[3] = tested on: rat
[4] = water
[5] = 8.64 mg Fe/kg (middle dosage / positive control)

Substance: ferrous L-threonate
- Iron content of whole blood [1, 5]: 301.89 ± 19.500 µg/mL
- Serum ferritin (SF) [1, 5]: 23.54 ± 2.50 ng/mL
- hemoglobin content ([1]; 8.64 mg Fe/kg (middle dosage / positive control), after anemia (before treatment)): 5.87 g %
- hemoglobin content ([1]; 8.64 mg Fe/kg (middle dosage / positive control), before anemia (baseline)): 15.01 g %
- hemoglobin content ([1]; 8.64 mg Fe/kg (middle dosage / positive control), one week after treatment): 11.11 g %
- hemoglobin content ([1]; 8.64 mg Fe/kg (middle dosage / positive control), two weeks after treatment): 14.04 g %
- whole blood iron and serum ferritin compared with ferrous gluconate group ([1]; groups except low dosage group): more considerably better than those of ferrous gluconate group
- Iron content of whole blood ([1]; high dosage, 17.28 mg Fe/kg): 326.95 ± 26.956 µg/mL
- Serum ferritin (SF) ([1]; high dosage, 17.28 mg Fe/kg): 24.05 ± 1.74 ng/mL
- hemoglobin content ([1]; high dosage, 17.28 mg Fe/kg, after anemia (before treatment)): 6.18 g %
- hemoglobin content ([1]; high dosage, 17.28 mg Fe/kg, before anemia (baseline)): 14.9 g %
- hemoglobin content ([1]; high dosage, 17.28 mg Fe/kg, one week after treatment): 11.95 g %
- hemoglobin content ([1]; high dosage, 17.28 mg Fe/kg, two weeks after treatment): 14.34 g %
- Iron content of whole blood ([1]; low dosage, 4.32 mg Fe/kg): 283.53 ± 23.051 µg/mL
- Serum ferritin (SF) ([1]; low dosage, 4.32 mg Fe/kg): 19.38 ± 1.57 ng/mL
- hemoglobin content ([1]; low dosage, 4.32 mg Fe/kg, after anemia (before treatment)): 5.94 g %
- hemoglobin content ([1]; low dosage, 4.32 mg Fe/kg, before anemia (baseline)): 14.89 g %
- hemoglobin content ([1]; low dosage, 4.32 mg Fe/kg, one week after treatment): 9.95 g %
- hemoglobin content ([1]; low dosage, 4.32 mg Fe/kg, two weeks after treatment): 12.57 g %
- action on treating anemia compared with ferrous gluconate ([1]; same dosage of iron, 8.64 mg/kg): considerably better than ferrous gluconate
- hemochrome content, onset of increase ([2]; end of 7 days supplementation): started to increase at the end of 7 days supplementation
- hemochrome content compared with normal control groups ([2]; rat, in vivo): reached nearly the normal levels of normal control groups
- parameters investigated compared with ferrous gluconate ([2]; same ferrous dosage): better than those of the known drug, ferrous gluconate
- toxicity grade ([3]; acute toxicity, rat): belongs to the grade of very lower
- LD50 ([3]; female rat): 3.16 g/kg
- LD50 ([3]; male rat): 3.69 g/kg
- safety in use ([3]; rat, in vivo): used safely and without toxicity
- solubility [4]: soluble in water
